Where “and” joins values, the source holds several entries; their conditions need not be identical. Equal entries are not always repeated. Entries after “also recorded” stand apart in the source; their conditions may differ.
System: collagen-induced arthritis
Experiment: Collagen-induced arthritis (CIA) model in rats: body weight, paw volume, clinical scores, clinical observations; for Average detailed clinical score, left hind limb: key of the grades not given here; for Average detailed clinical score, right hind limb: key of the grades not given here; for Detailed Clinical Scores, left forelimb: key of the grades not given here; for Detailed Clinical Scores, left hind limb: key of the grades not given here; for Detailed Clinical Scores, right forelimb: key of the grades not given here; for Detailed Clinical Scores, right hind limb: key of the grades not given here; for Detailed Clinical Scores, score: key of the grades not given here; for Mean overall clinical score ± SD: key of the grades not given here; for Overall clinical score: key of the grades not given here
Conditions: for Mean animal paw volume ± SD: group mean; for Overall clinical score: individual animals #1-8; for Detailed Clinical Scores, left forelimb / Detailed Clinical Scores, left hind limb / Detailed Clinical Scores, right forelimb / Detailed Clinical Scores, right hind limb / Detailed Clinical Scores, score: individual animals ID 1-8

CNC(=O)c1[nH]c(C(=O)NC2CCC2)cc1O[C@@H](C)c1ccccc1 (stereo in doubt) [Example 101, N^5-cyclobutyl-N^2-methyl-3-(1-phenylethoxy)-1H-pyrrole-2,5-dicarboxamide]
Animal paw volume Day 0 L (CIA rats, 30 mg/kg, Day 0, left paw, individual animals): 1.33 mL (2×) and 1.32 mL (3×) and 1.31 mL and 1.30 mL and 1.34 mL
Average animal paw volume percent change (CIA rats, 30 mg/kg, Day 0, right hind paw (R)): 0.00%
Animal paw volume Day 0 R (CIA rats, 30 mg/kg, Day 0, right paw, individual animals): 1.34 mL (2×) and 1.31 mL (2×) and 1.33 mL and 1.30 mL and 1.32 mL (2×)
Average animal paw volume percent change (CIA rats, 30 mg/kg, Day 6, left hind paw (L)): 0.76%
Animal paw volume Day 6 L (CIA rats, 30 mg/kg, Day 6, left paw, individual animals): 1.35 mL and 1.33 mL (3×) and 1.32 mL (3×) and 1.34 mL
Average animal paw volume percent change (CIA rats, 30 mg/kg, Day 6, right hind paw (R)): 0.75%
Animal paw volume Day 6 R (CIA rats, 30 mg/kg, Day 6, right paw, individual animals): 1.36 mL and 1.32 mL (2×) and 1.31 mL and 1.34 mL (2×) and 1.33 mL (2×)
Average animal paw volume percent change (CIA rats, 30 mg/kg, Day 12, left hind paw (L)): 1.33%
Animal paw volume Day 12 L (CIA rats, 30 mg/kg, Day 12, left paw, individual animals): 1.36 mL (2×) and 1.34 mL (2×) and 1.31 mL and 1.33 mL and 1.32 mL and 1.35 mL
Average animal paw volume percent change (CIA rats, 30 mg/kg, Day 12, right hind paw (R)): 2.87%
Animal paw volume Day 12 R (CIA rats, 30 mg/kg, Day 12, right paw, individual animals): 1.50 mL and 1.36 mL and 1.33 mL (4×) and 1.34 mL and 1.35 mL
Average animal paw volume percent change (CIA rats, 30 mg/kg, Day 13, left hind paw (L)): 2.76%
Animal paw volume Day 13 L (CIA rats, 30 mg/kg, Day 13, left paw, individual animals): 1.40 mL and 1.36 mL (2×) and 1.33 mL and 1.34 mL (2×) and 1.38 mL and 1.35 mL
Average animal paw volume percent change (CIA rats, 30 mg/kg, Day 13, right hind paw (R)): 4.15%
Animal paw volume Day 13 R (CIA rats, 30 mg/kg, Day 13, right paw, individual animals): 1.54 mL and 1.38 mL and 1.34 mL (2×) and 1.36 mL (3×) and 1.33 mL
Average animal paw volume percent change (CIA rats, 30 mg/kg, Day 14, left hind paw (L)): 2.39%
Animal paw volume Day 14 L (CIA rats, 30 mg/kg, Day 14, left paw, individual animals): 1.40 mL and 1.35 mL (2×) and 1.32 mL and 1.37 mL (2×) and 1.36 mL and 1.30 mL
Average animal paw volume percent change (CIA rats, 30 mg/kg, Day 14, right hind paw (R)): 3.83%
Animal paw volume Day 14 R (CIA rats, 30 mg/kg, Day 14, right paw, individual animals): 1.53 mL and 1.37 mL and 1.35 mL (2×) and 1.36 mL (3×) and 1.28 mL
Average animal paw volume percent change (CIA rats, 30 mg/kg, Day 15, left hind paw (L)): 10.45%
Animal paw volume Day 15 L (CIA rats, 30 mg/kg, Day 15, left paw, individual animals): 1.46 mL and 1.79 mL and 1.57 mL and 1.38 mL (2×) and 1.34 mL and 1.44 mL and 1.31 mL
Average animal paw volume percent change (CIA rats, 30 mg/kg, Day 15, right hind paw (R)): 12.13%
Animal paw volume Day 15 R (CIA rats, 30 mg/kg, Day 15, right paw, individual animals): 1.52 mL and 1.37 mL and 1.68 mL and 1.38 mL and 1.49 mL and 1.36 mL and 1.73 mL and 1.30 mL
Average animal paw volume percent change (CIA rats, 30 mg/kg, Day 18, left hind paw (L)): 29.38%
Animal paw volume Day 18 L (CIA rats, 30 mg/kg, Day 18, left paw, individual animals): 1.46 mL and 2.05 mL and 1.90 mL and 1.47 mL (2×) and 1.68 mL and 1.93 mL and 1.70 mL
Average animal paw volume percent change (CIA rats, 30 mg/kg, Day 18, right hind paw (R)): 23.54%
Animal paw volume Day 18 R (CIA rats, 30 mg/kg, Day 18, right paw, individual animals): 1.51 mL and 1.87 mL and 1.86 mL and 1.37 mL and 1.48 mL and 1.32 mL and 1.95 mL and 1.68 mL
Average animal paw volume percent change (CIA rats, 30 mg/kg, Day 19, left hind paw (L)): 33.52%
Animal paw volume Day 19 L (CIA rats, 30 mg/kg, Day 19, left paw, individual animals): 1.42 mL and 2.04 mL and 2.06 mL and 1.56 mL and 1.55 mL and 1.85 mL and 1.94 mL and 1.67 mL
Average animal paw volume percent change (CIA rats, 30 mg/kg, Day 19, right hind paw (R)): 32.36%
Animal paw volume Day 19 R (CIA rats, 30 mg/kg, Day 19, right paw, individual animals): 1.44 mL and 1.96 mL and 2.14 mL and 1.39 mL and 1.48 mL and 1.83 mL and 2.04 mL and 1.69 mL
Average animal paw volume percent change (CIA rats, 30 mg/kg, Day 21, left hind paw (L)): 37.92%
Animal paw volume Day 21 L (CIA rats, 30 mg/kg, Day 21, left paw, individual animals): 1.43 mL and 2.08 mL and 2.11 mL and 1.54 mL (2×) and 2.06 mL and 2.13 mL and 1.67 mL
Average animal paw volume percent change (CIA rats, 30 mg/kg, Day 21, right hind paw (R)): 36.08%
Animal paw volume Day 21 R (CIA rats, 30 mg/kg, Day 21, right paw, individual animals): 1.43 mL and 2.10 mL and 2.16 mL and 1.40 mL and 1.47 mL and 2.00 mL and 2.12 mL and 1.67 mL
overall effect on joint inflammation and clinical symptoms of CIA (CIA rats, 3, 10 and 30 mg/kg twice daily P.O. (groups 5-7)): ameliorated joint inflammation in a dose-dependent manner; also recorded: lower clinical scores; also recorded: dose-dependent effect in the amelioration of clinical symptoms associated with CIA; also recorded: function in a dose-dependent manner to limit and/or reduce the severity of CIA-related symptoms
Mean animal paw volume ± SD (Day 0, L paw, 3 mg/kg): 1.33 mL
Mean animal paw volume ± SD (Day 0, L paw, 10 mg/kg): 1.31 mL
Mean animal paw volume ± SD (Day 0, L paw, 30 mg/kg): 1.32 mL
Mean animal paw volume ± SD (Day 0, R paw, 3 mg/kg): 1.33 mL
Mean animal paw volume ± SD (Day 0, R paw, 10 mg/kg): 1.31 mL
Mean animal paw volume ± SD (Day 0, R paw, 30 mg/kg): 1.32 mL
Average detailed clinical score, left forelimb (Day 0, CIA rats, 3 mg/kg): 0.00
Average detailed clinical score, left hind limb (Day 0, CIA rats, 3 mg/kg): 0.00
Average detailed clinical score, right forelimb (Day 0, CIA rats, 3 mg/kg): 0.00
Average detailed clinical score, right hind limb (Day 0, CIA rats, 3 mg/kg): 0.00
Average detailed clinical score, score (Day 0, CIA rats, 3 mg/kg): 0.00
Mean overall clinical score ± SD (Day 0, CIA rats, 3 mg/kg): 0 ± 0
Overall clinical score (Day 0, CIA rats, 3 mg/kg): 0
Average detailed clinical score, left forelimb (Day 0, CIA rats, 10 mg/kg): 0.00
Average detailed clinical score, left hind limb (Day 0, CIA rats, 10 mg/kg): 0.00
Average detailed clinical score, right forelimb (Day 0, CIA rats, 10 mg/kg): 0.00
Average detailed clinical score, right hind limb (Day 0, CIA rats, 10 mg/kg): 0.00
Average detailed clinical score, score (Day 0, CIA rats, 10 mg/kg): 0.00
Mean overall clinical score ± SD (Day 0, CIA rats, 10 mg/kg): 0 ± 0
Overall clinical score (Day 0, CIA rats, 10 mg/kg): 0
Average detailed clinical score, left forelimb (Day 0, CIA rats, 30 mg/kg): 0.00
Average detailed clinical score, left hind limb (Day 0, CIA rats, 30 mg/kg): 0.00
Average detailed clinical score, right forelimb (Day 0, CIA rats, 30 mg/kg): 0.00
Average detailed clinical score, right hind limb (Day 0, CIA rats, 30 mg/kg): 0.00
Average detailed clinical score, score (Day 0, CIA rats, 30 mg/kg): 0.00
Mean overall clinical score ± SD (Day 0, CIA rats, 30 mg/kg): 0 ± 0
Mean animal paw volume ± SD (Day 6, L paw, 3 mg/kg): 1.34 mL
Mean animal paw volume ± SD (Day 6, L paw, 10 mg/kg): 1.32 mL
Mean animal paw volume ± SD (Day 6, L paw, 30 mg/kg): 1.33 mL
Mean animal paw volume ± SD (Day 6, R paw, 3 mg/kg): 1.35 mL
Mean animal paw volume ± SD (Day 6, R paw, 10 mg/kg): 1.32 mL
Mean animal paw volume ± SD (Day 6, R paw, 30 mg/kg): 1.33 mL
Average detailed clinical score, left forelimb (Day 6, CIA rats, 3 mg/kg): 0.00
Average detailed clinical score, left hind limb (Day 6, CIA rats, 3 mg/kg): 0.00
Average detailed clinical score, right forelimb (Day 6, CIA rats, 3 mg/kg): 0.00
Average detailed clinical score, right hind limb (Day 6, CIA rats, 3 mg/kg): 0.00
Average detailed clinical score, score (Day 6, CIA rats, 3 mg/kg): 0.00
Mean overall clinical score ± SD (Day 6, CIA rats, 3 mg/kg): 0 ± 0
Overall clinical score (Day 6, CIA rats, 3 mg/kg): 0
Average detailed clinical score, left forelimb (Day 6, CIA rats, 10 mg/kg): 0.00
Average detailed clinical score, left hind limb (Day 6, CIA rats, 10 mg/kg): 0.00
Average detailed clinical score, right forelimb (Day 6, CIA rats, 10 mg/kg): 0.00
Average detailed clinical score, right hind limb (Day 6, CIA rats, 10 mg/kg): 0.00
Average detailed clinical score, score (Day 6, CIA rats, 10 mg/kg): 0.00
Mean overall clinical score ± SD (Day 6, CIA rats, 10 mg/kg): 0 ± 0
Overall clinical score (Day 6, CIA rats, 10 mg/kg): 0
Average detailed clinical score, left forelimb (Day 6, CIA rats, 30 mg/kg): 0.00
Average detailed clinical score, left hind limb (Day 6, CIA rats, 30 mg/kg): 0.00
Average detailed clinical score, right forelimb (Day 6, CIA rats, 30 mg/kg): 0.00
Average detailed clinical score, right hind limb (Day 6, CIA rats, 30 mg/kg): 0.00
Average detailed clinical score, score (Day 6, CIA rats, 30 mg/kg): 0.00
Mean overall clinical score ± SD (Day 6, CIA rats, 30 mg/kg): 0 ± 0
Mean animal paw volume ± SD (Day 12, L paw, 3 mg/kg): 1.41 mL
Mean animal paw volume ± SD (Day 12, L paw, 10 mg/kg): 1.41 mL
Mean animal paw volume ± SD (Day 12, L paw, 30 mg/kg): 1.33 mL
Mean animal paw volume ± SD (Day 12, R paw, 3 mg/kg): 1.40 mL
Mean animal paw volume ± SD (Day 12, R paw, 10 mg/kg): 1.41 mL
Mean animal paw volume ± SD (Day 12, R paw, 30 mg/kg): 1.36 mL
Detailed Clinical Scores, left forelimb (Day 12, 3 mg/kg, CIA rats): 0
Detailed Clinical Scores, left hind limb (Day 12, 3 mg/kg, CIA rats): 0 (7×) and 1
Detailed Clinical Scores, right forelimb (Day 12, 3 mg/kg, CIA rats): 0 (6×) and 1 (2×)
Detailed Clinical Scores, right hind limb (Day 12, 3 mg/kg, CIA rats): 0
Detailed Clinical Scores, score (Day 12, 3 mg/kg, CIA rats): 0 (5×) and 1 (3×)
Detailed Clinical Scores, left forelimb (Day 12, 10 mg/kg, CIA rats): 0
Detailed Clinical Scores, left hind limb (Day 12, 10 mg/kg, CIA rats): 1 (2×) and 0 (6×)
Detailed Clinical Scores, right forelimb (Day 12, 10 mg/kg, CIA rats): 0
Detailed Clinical Scores, right hind limb (Day 12, 10 mg/kg, CIA rats): 0 (7×) and 2
Detailed Clinical Scores, score (Day 12, 10 mg/kg, CIA rats): 1 (2×) and 0 (5×) and 2
Detailed Clinical Scores, left forelimb (Day 12, 30 mg/kg, CIA rats): 0
Detailed Clinical Scores, left hind limb (Day 12, 30 mg/kg, CIA rats): 0
Detailed Clinical Scores, right forelimb (Day 12, 30 mg/kg, CIA rats): 0
Detailed Clinical Scores, right hind limb (Day 12, 30 mg/kg, CIA rats): 1 and 0 (7×)
Detailed Clinical Scores, score (Day 12, 30 mg/kg, CIA rats): 1 and 0 (7×)
Average detailed clinical score, left forelimb (Day 12, CIA rats, 3 mg/kg): 0.00
Average detailed clinical score, left hind limb (Day 12, CIA rats, 3 mg/kg): 0.13
Average detailed clinical score, right forelimb (Day 12, CIA rats, 3 mg/kg): 0.25
Average detailed clinical score, right hind limb (Day 12, CIA rats, 3 mg/kg): 0.00
Average detailed clinical score, score (Day 12, CIA rats, 3 mg/kg): 0.38
Mean overall clinical score ± SD (Day 12, CIA rats, 3 mg/kg): 0 ± 1
Overall clinical score (Day 12, CIA rats, 3 mg/kg): 0 (5×) and 1 (3×)
Average detailed clinical score, left forelimb (Day 12, CIA rats, 10 mg/kg): 0.00
Average detailed clinical score, left hind limb (Day 12, CIA rats, 10 mg/kg): 0.25
Average detailed clinical score, right forelimb (Day 12, CIA rats, 10 mg/kg): 0.00
